Measurements as given in US10758513B2, “Modulators of mitochondrial protein import” (THE REGENTS OF THE UNIVERSITY OF CALIFORNIA, priority 2011, dated 2020).
pIC50: −log10 of the molar value. Converted amounts (≈) assume the structure as drawn. “Also recorded” adds a separate entry of the source.

What was measured:
[1] = system: strains lacking the mitochondrial genome (rho null); test: Yeast growth inhibition, rho null strains; assay type: cell-based
Text: In general, a standard set of genetic and molecular techniques were used to generate the strains in this study (31, 32). Screening strains were generated based on previously characterized temperature sensitive mutants (see supplementary table 1). The snq1 and pdr5 deletions were introduced in each strain by strain mating with MDY326 or PCR-mediated deletion (33, 34). Overexpression strains were generated by transforming 2p yeast shuttle vectors carrying the gene of interest with the native promoter into the tim10-1 strain using a standard LiCl protocol (35). Transformed yeast was maintained on selective media appropriate for the plasmid's auxotrophic marker. Strains lacking mitochondrial DNA (rho null) were generated by two rounds of selection of the parent on YPD plates supplemented with ethidium bromide (40 μg/ml) followed by two rounds of single colony selection on YPD plates.
(§1) A primary screen was performed using freshly streaked tim10-1 diluted in YPD to an OD600 of approximately 0.0002 and kept on ice throughout the screening run. […] Each plate was shaken in a Beckman orbital shaker to resuspend settled cells, and the OD600 in each well was read by a Wallac Victor plate reader (Perkin Elmer). The top 600 growth inhibitory compounds were determined and assembled into two plates. […]

[2] = system: tim10-1 mutant; test: Yeast growth inhibition (MIC50), tim10-1 mutant; assay type: cell-based; details: Saccharomyces cerevisiae, read-out: MIC50 that inhibited growth of the tim10-1 mutant
Protocol: The screen was conducted with an integrated robotic system with plate scheduling. Briefly, diversity oriented commercial libraries of drug-like compounds from Chembridge and Asinex were screened against the tim10-1 strain at a concentration of approximately 10 μM. The screen encompassed a total of approximately 50,000 compounds dissolved in DMSO. Yeast in YPD medium was aliquoted into 384-well plates followed by compound addition with robotic pinning into the assay wells. DMSO was the vehicle for the small molecules, and several plate columns that contained only 1% DMSO were included as a control with the pinned compounds. As a negative control for growth, wells pinned with the mitochondrial uncoupler CCCP, which caused lethality, were also included. After 2 days of incubation at 25° C., cultures in each well were measured for optical density (O.D.) as a measure of growth. A typical reading for the positive control was OD600=0.8. […]
as §1

[3] = system: isogenic control (TIM10); test: Yeast growth inhibition (MIC50), isogenic control (TIM10); assay type: cell-based; details: Saccharomyces cerevisiae
Protocol: A primary screen was performed using freshly streaked tim10-1 diluted in YPD to an OD600 of approximately 0.0002 and kept on ice throughout the screening run. A Titertek multidrop (Huntsville, Ala.) was used dispense 40 μL of cell suspension to all wells of each clear 384-well plate (Greiner Bio One). After yeast suspension warmed to room temperature, a Biomek FX (Beckman Coulter) was used to pin transfer 0.5 μL of compound from 1 mM stock or DMSO to respective wells. Approximate screening concentration was 12.5 μM. All operations were performed by an automated plate scheduler to ensure consistency across the screening run. After completed compound transfer, all plates were incubated at 25° C. in a humidified incubator until the OD600 reached approximately 0.8 in the control wells; the control consisted of the tim10-1 mutant with the vehicle 1% DMSO. Each plate was shaken in a Beckman orbital shaker to resuspend settled cells, and the OD600 in each well was read by a Wallac Victor plate reader (Perkin Elmer). The top 600 growth inhibitory compounds were determined and assembled into two plates. Using a similar screening methodology, hit compounds were reconfirmed with the tim10-1 strain and growth inhibition was compared to the WT strain (TIM10) as well as the “rescued” strain (tim10-1 TIM10 that contained a copy of the wild-type TIM10 genes on a centromeric plasmid) strains. […]

[4] = system: WT mitochondria; test: In vitro import of AAC into wild-type mitochondria; assay type: biochemical, yeast
Protocol: Prior to import into purified mitochondria, ^35S-methionine and cysteine labeled proteins were generated with TNT Quick Coupled Transcription/Translation kits (Promega) and plasmids carrying the gene of interest. Transcription of genes was driven by either a T7 or SP6 promoter. Import reactions were conducted according to established methods. After frozen mitochondria aliquots were thawed and added to the import buffer at a final concentration of 100 μg/mL, drug or DMSO vehicle was added as indicated. A final vehicle concentration of 1% was used in all experiments. Following 15 minute incubation at 25° C., import reactions were initiated by the addition of […] of translation mix. Aliquots were removed at intervals during the reaction timecourse and import was terminated with either cold buffer, 25 μg/mL trypsin, or a combination of both. If trypsin was added to digest unimported precursor protein, soybean trypsin inhibitor (STI) was subsequently added in excess after 15 minute incubation on ice. After a final recovery of by centrifugation (8,000×g, 5 minutes), mitochondria were disrupted in Laemmli sample buffer. Imports of membrane proteins (AAC, PiC, Tom40, Tim22, and Tim23) included a carbonate extraction step to remove proteins that had not inserted into the membrane (Koehler C M, et al. (1998), Science 279:369-373). […]

[5] = system: tim10-1 tim9S suppressor strain; test: Yeast growth inhibition (MIC50), tim10-1 tim9S suppressor strain; assay type: cell-based; details: Saccharomyces cerevisiae; disrupted for prd5 and snq2
[6] = target: Erv2 (Saccharomyces cerevisiae, UniProt Q12284); test: In vitro Erv2 activity, Amplex Red-HRP assay; assay type: biochemical, yeast
[7] = system: HEK293 cells; test: Treatment of HEK293 cells with MitoBloCK-6; assay type: cell-based; details: unpublished data
Protocol: For microscopy experiments, HeLa or HEK293 cells were transiently transfected with Su9-EGFP (Lipofectamine, Invitrogen) at 80% confluency. 12 hours post transfection, cells were co-labeled with Mitotracker red CMXRos (Invitrogen) and visualized with a microscope (Axiovert 200M Carl Zeiss) using a Plan-Fluor 63× oil objective. Images were acquired at room temperature with a charge-coupled device camera (ORCA ER, Hamamatsu Photonics) controlled by Axiovision software (Carl Zeiss). Image files were processed by Photoshop software (Adobe). […] For cyt c release assays, a cell fractionation kit (MitoSciences) was used. Briefly, HeLa or HEK293 cells were grown in 10 cm^2 dishes to 80% confluency and then cells were treated with DMSO or MitoBloCK-6 in complete medium for 12-16 h. […] Cells were fractionated to obtain cytosolic and mitochondrial fractions; 100 μg of each fraction was analyzed by SDS-PAGE. Blots were probed with ApoTrack cyt c apoptosis antibody cocktail (MitoSciences).

Erv2, sequence (Q12284 whole entry): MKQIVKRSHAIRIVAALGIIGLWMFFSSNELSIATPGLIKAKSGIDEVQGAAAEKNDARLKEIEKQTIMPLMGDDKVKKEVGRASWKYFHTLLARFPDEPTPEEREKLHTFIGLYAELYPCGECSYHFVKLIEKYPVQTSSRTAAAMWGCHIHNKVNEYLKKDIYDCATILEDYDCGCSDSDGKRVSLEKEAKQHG

Row | Compound | sensitivity of rho null strains [1] | MIC50 [2] | MIC50 [3] | import of AAC into WT mitochondria [4] | MIC50 [5] | pIC50 [6] | morphology and viability in HEK293 cells [7]
1 | NC(=S)N/N=C/c1c(O)c(Br)cc2oc3c(c12)CCCC3 [MitoBloCK-1] | sensitive | ~1 µM (≈ 0.368 µg/mL) | > 200 µM | did not inhibit import; also recorded: does not inhibit AAC import | 10 µM (≈ 3.68 µg/mL) | – | –
2 | Oc1c(Cl)cc(Cl)cc1/C=N/c1ccc(Nc2ccccc2)cc1 [MitoBloCK-6] | – | – | – | – | – | 5.85 | showed similar results
